{"source": "patent US20080305186A1", "about": "“Method and Composition for the Treatment of Cardiac Hypertrophy” (BOARD OF REGENTS, THE UNIVERSITY OF TEXAS SYSTEM, priority 2007, published 2008)", "test_system": "cardiac gene expression", "assay": "Microarray analysis of cardiac gene expression (GeneChip Mouse Genome 430 2.0)", "format": "in vivo, mice", "description": "Microarray Sample Preparation and Analysis. Animal hearts were rapidly removed, and the atria and right ventricles were cut and immediately plunged into TRIzol Reagent (Life Technologies). Total RNA was isolated following the manufacturer's instructions, purified by phenol-chloroform extraction and then ethanol precipitation, and 20 μg further processed for microarray analysis. Briefly, cDNA synthesis, in vitro transcription, and labeling and fragmentation to produce the oligonucleotide probes were performed as instructed by the GeneChip manufacturer (Affymetrix). The probes were first hybridized to a test array (Affymetrix) and then to the GeneChip Mouse Genome 430 2.0 Array, using the GeneChip Hybridization Oven 640. The chips were washed in a GeneChip Fluidics Station 450 (Affymetrix), and the results were visualized with a GeneChip G7 scanner (Affymetrix). RMA normalization, pairwise comparisons, Student's t test and Benjamini and Hochberg correction were subsequently performed using GeneSifter (VizX Labs, Seattle, Wash.) and Spotfire DecisionSite 8.3 (Spotfire, Inc., Somerville, Mass.).\nEffects on Gene Expression Profile. […] One mouse heart was used for each array, and was performed in triplicate, generating a total of 12 arrays. GeneSifter was used to perform RMA normalization, pairwise comparisons of averaged signal intensity values, and Student's t-test with Benjamini and Hochberg correction, and Spotfire was used to perform pairwise comparisons. […] Additionally, genes that were altered between any two N or cardiac hypertrophy samples were removed, as these alterations most likely represented normal variations between mice.", "key": {"[1]": {"conditions": "mouse heart, vs isoproterenol only (CH), CH vs normal −1.7"}, "[2]": {"conditions": "mouse heart, vs isoproterenol only (CH), CH vs normal −1.8"}, "[3]": {"conditions": "mouse heart, vs isoproterenol only (CH), CH vs normal −1.9"}, "[4]": {"conditions": "mouse heart, vs isoproterenol only (CH), CH vs normal −2.0"}, "[5]": {"conditions": "mouse heart, vs isoproterenol only (CH), CH vs normal −2.1"}, "[6]": {"conditions": "mouse heart, vs isoproterenol only (CH), CH vs normal −2.4"}, "[7]": {"conditions": "mouse heart, vs isoproterenol only (CH), CH vs normal −2.5"}, "[8]": {"conditions": "mouse heart, vs isoproterenol only (CH), CH vs normal −2.6"}, "[9]": {"conditions": "mouse heart, vs isoproterenol only (CH), CH vs normal −2.7"}, "[10]": {"conditions": "mouse heart, vs isoproterenol only (CH), CH vs normal −2.8"}, "[11]": {"conditions": "mouse heart, vs isoproterenol only (CH), CH vs normal −2.9"}, "[12]": {"conditions": "mouse heart, vs isoproterenol only (CH), CH vs normal −3.0"}, "[13]": {"conditions": "mouse heart, vs isoproterenol only (CH), CH vs normal −3.2"}, "[14]": {"conditions": "mouse heart, vs isoproterenol only (CH), CH vs normal −3.3"}, "[15]": {"conditions": "mouse heart, vs isoproterenol only (CH), CH vs normal −3.9"}}, "data": [{"smiles": "C[C@H]1c2cccc(O)c2C(=O)C2=C(O)[C@]3(O)C(=O)C(C(N)=O)=C(O)[C@@H](N(C)C)[C@@H]3[C@@H](O)[C@@H]21", "note": "[doxycycline]", "values": [{"measurement": "FC EphrinB3 (Efnb3), BQ175608", "setting": "[1]", "value": 1.6, "unit": "fold"}, {"measurement": "FC Nuclear factor IB (Nfib), BB092799", "setting": "[1]", "value": 4.0, "unit": "fold"}, {"measurement": "FC Preimplantation protein 4 (Prei4), BB550273", "setting": "[1]", "value": 3.6, "unit": "fold"}, {"measurement": "FC Triple futional domain (PTPRF interacting) (Trio), BB794936", "setting": "[1]", "value": 3.0, "unit": "fold"}, {"measurement": "FC cDNA, AK020162", "setting": "[1]", "value": 1.7, "unit": "fold"}, {"measurement": "FC ATPase, Na+/K+ transporting, alpha 1 polypeptide (Atp1a1), BC025618", "setting": "mouse heart, vs isoproterenol only (CH), CH vs normal −1.7, first BC025618 line", "value": 2.4, "unit": "fold"}, {"measurement": "FC EST, BB126796", "setting": "[2]", "value": 6.5, "unit": "fold"}, {"measurement": "FC EST, BB451134", "setting": "[2]", "value": 7.5, "unit": "fold"}, {"measurement": "FC Metastasis suppressor 1 (Mtss1), BB326749", "setting": "[2]", "value": 2.0, "unit": "fold"}, {"measurement": "FC Tetratricopeptide repeat domain (Ttc3), BB833716", "setting": "[2]", "value": 3.0, "unit": "fold"}, {"measurement": "FC EST, BM941198", "setting": "[3]", "value": 3.2, "unit": "fold"}, {"measurement": "FC Jumonji, AT rich interactive domain 1A (Rbp2 like) (Jarid1a), BB376407", "setting": "[3]", "value": 2.6, "unit": "fold"}, {"measurement": "FC cDNA, BB006809", "setting": "[3]", "value": 2.1, "unit": "fold"}, {"measurement": "FC Guanine nucleotide binding protein, alpha 12 (Gna12), NM_010302", "setting": "[4]", "value": 3.0, "unit": "fold"}, {"measurement": "FC Zi finger and BTB domain containing 20 (Zbtb20), BB175650", "setting": "[4]", "value": 2.3, "unit": "fold"}, {"measurement": "FC cDNA, BC002200", "setting": "[4]", "value": 4.8, "unit": "fold"}, {"measurement": "FC ATPase, Na+/K+ transporting, alpha 1 polypeptide (Atp1a1), BC025618", "setting": "mouse heart, vs isoproterenol only (CH), CH vs normal −2.0, second BC025618 line", "value": 2.7, "unit": "fold"}, {"measurement": "FC Adenylate kinase 4 (Ak4), NM_009647", "setting": "[5]", "value": 2.2, "unit": "fold"}, {"measurement": "FC Beta-tubulin gene M-beta-2 (Tubb2a), M28739", "setting": "[5]", "value": 1.7, "unit": "fold"}, {"measurement": "FC C1q and tumor necrosis factor related protein 4 (C1qtnf4), NM_026161", "setting": "[5]", "value": 1.5, "unit": "fold"}, {"measurement": "FC Cold inducible RNA binding protein (Cirbp), NM_007705", "setting": "[5]", "value": 1.7, "unit": "fold"}, {"measurement": "FC Coronin, actin binding protein 1C (Coro1c), NM_011779", "setting": "[5]", "value": 2.1, "unit": "fold"}, {"measurement": "FC Adrenergic receptor, alpha 1b (Adra1b), NM_007416", "setting": "mouse heart, vs isoproterenol only (CH), CH vs normal −2.3", "value": 1.8, "unit": "fold"}, {"measurement": "FC CXXC finger 5 (Cxxc5), AK015150", "setting": "[6]", "value": 2.1, "unit": "fold"}, {"measurement": "FC DNA segment, Chr 9, ERATO Doi 256, expressed, BG066667", "setting": "[6]", "value": 3.3, "unit": "fold"}, {"measurement": "FC Insulin degrading enzyme (Ide), AK014703", "setting": "[6]", "value": 2.1, "unit": "fold"}, {"measurement": "FC Sno, strawbeny notch homolog 1 (Sno1), BE947961", "setting": "[6]", "value": 3.0, "unit": "fold"}, {"measurement": "FC cDNA, BB748887", "setting": "[6]", "value": 3.9, "unit": "fold"}, {"measurement": "FC B-cell translocation gene 2, anti-proliferative (Btg2), BG965405", "setting": "[7]", "value": 2.2, "unit": "fold"}, {"measurement": "FC cDNA, BC026793", "setting": "[7]", "value": 2.5, "unit": "fold"}, {"measurement": "FC Cbp/p300-interacting transactivator, with Glu/Asp-rich carboxy-terminal domain, 4 (Cited4), BC025116", "setting": "[8]", "value": 2.0, "unit": "fold"}, {"measurement": "FC Desmoglein 2 (Dsg2), AB072269", "setting": "[8]", "value": 3.0, "unit": "fold"}, {"measurement": "FC Heat shock protein, 84 kDa 1 (Hsp90ab1), BI154147", "setting": "[8]", "value": 8.7, "unit": "fold"}, {"measurement": "FC Myocyte enhaer factor 2C (Mef2c), AI595932", "setting": "[8]", "value": 4.5, "unit": "fold"}, {"measurement": "FC Restin-like 2 (Rsnl2), AK018895", "setting": "[8]", "value": 3.8, "unit": "fold"}, {"measurement": "FC Jumonji domain containing 3 (Jmjd3), AW763746", "setting": "[9]", "value": 5.0, "unit": "fold"}, {"measurement": "FC cDNA (similar to integrin beta 1 binding protein 3), AK009897", "setting": "[9]", "value": 4.0, "unit": "fold"}, {"measurement": "FC ADP-ribosylation factor 2 (Arf2), AV023312", "setting": "[10]", "value": 2.5, "unit": "fold"}, {"measurement": "FC Karyopherin (importin) beta 1 (Kpnb1), AW544889", "setting": "[10]", "value": 3.6, "unit": "fold"}, {"measurement": "FC PPAR gamma coactivator-1beta protein (Ppargc1b), NM_133249", "setting": "[11]", "value": 4.4, "unit": "fold"}, {"measurement": "FC SET and MYND domain containing 1 (Smyd1), NM_009762", "setting": "[11]", "value": 2.7, "unit": "fold"}, {"measurement": "FC cDNA, AK013448", "setting": "[11]", "value": 2.6, "unit": "fold"}, {"measurement": "FC Dual specificity phosphatase 8 (Dusp8), NM_008748", "setting": "[12]", "value": 2.8, "unit": "fold"}, {"measurement": "FC GATA binding protein 4 (Gata4), NM_008092", "setting": "[12]", "value": 2.7, "unit": "fold"}, {"measurement": "FC ATP synthase, H+ transporting, mitochondrial F1 complex, alpha subunit, isoform 1 (Atp5a1), C78762", "setting": "mouse heart, vs isoproterenol only (CH), CH vs normal −3.1", "value": 1.7, "unit": "fold"}, {"measurement": "FC Actin, beta, cytoplasmic (Actb), AW537707", "setting": "[13]", "value": 4.9, "unit": "fold"}, {"measurement": "FC Methionine sulfoxide reductase B3 (Msrb3), BB277041", "setting": "[13]", "value": 7.2, "unit": "fold"}, {"measurement": "FC Cyclin D1 (Ccnd1), BB538325", "setting": "[14]", "value": 2.7, "unit": "fold"}, {"measurement": "FC Thymoma viral proto-oogene 1 (Akt1), M94335", "setting": "[14]", "value": 2.1, "unit": "fold"}, {"measurement": "FC cDNA, BB283973", "setting": "[14]", "value": 4.1, "unit": "fold"}, {"measurement": "FC cDNA, BB534971", "setting": "mouse heart, vs isoproterenol only (CH), CH vs normal −3.5", "value": 2.9, "unit": "fold"}, {"measurement": "FC cDNA, BB026304", "setting": "mouse heart, vs isoproterenol only (CH), CH vs normal −3.8", "value": 4.1, "unit": "fold"}, {"measurement": "FC Connexin 43 (alpha-1 gap jution) (Gja1), M63801", "setting": "[15]", "value": 3.6, "unit": "fold"}, {"measurement": "FC Kinesin-like protein (Kif1b), D17577", "setting": "[15]", "value": 4.8, "unit": "fold"}, {"measurement": "FC Kv channel-interacting protein 2a (Kcnip2), AF439339", "setting": "mouse heart, vs isoproterenol only (CH), CH vs normal −4.4", "value": 3.7, "unit": "fold"}, {"measurement": "FC Potassium voltage-gated channel, Isk-related subfamily, member 1 (Kcne1), NM_008424", "setting": "mouse heart, vs isoproterenol only (CH), CH vs normal −4.6", "value": 1.5, "unit": "fold"}, {"measurement": "FC Tumor rejection antigen gp96 (Tra1); heat shock protein 90 kDa beta (Grp94), member 1 (Hsp90b1), BE995678", "setting": "mouse heart, vs isoproterenol only (CH), CH vs normal −9.4", "value": 8.0, "unit": "fold"}, {"measurement": "FC Cadherin 13 (Cdh13), AK016527", "setting": "mouse heart, vs isoproterenol only (CH), CH vs normal −10.0", "value": 9.8, "unit": "fold"}, {"measurement": "FC cDNA (D site albumin promoter binding protein, Dbp), BB550183", "setting": "mouse heart, vs isoproterenol only (CH), CH vs normal −11.5", "value": 12.0, "unit": "fold"}, {"measurement": "number of the 472 cardiac hypertrophy-specific Combo-altered genes also altered by the drug alone", "setting": "statistical parameters lifted (average fold-changes irrespective of statistical measures)", "value": 453}]}]}
